Test results reported in US20060116316A1, “Heterocyclic inhibitors of IRES-mediated translation and methods of use thereof” (priority 2004, published 2006).
Where a SMILES comes first, the peptide text is derived from it.

Test system: HCV IRES
Assay: HCV IRES reporter FACS assay (GFP expression ratio, intein-expressed cyclic peptides)
Assay type: cell-based, Hepatitis C virus
Details: 3-mers from mutant intein scaffold, junction Val-His-Asn-X1X2X3-Trp-Ile-Ser; ratio at least 1.20 = significant activity
Text: [The source words this procedure for another variant and says it was used here with some conditions changed.] Cells producing libraries of cyclic 3-mers and 4-mers (i.e., libraries of cyclic peptides that contain 3 or 4 amino acid residues) were constructed using methods identical to those of Kinsella et al (J Biol. Chem. 2002 277:37512-8), except different oligonucleotides were used for library construction. Clones from this library were screened in an assay shown in FIG. 2 to identify IRES-inhibitory compounds.
In summary, separate cyclic 3-mer and cyclic 4-mer libraries were constructed such that each peptide of the library contained a fixed Ser, Thr or Cys residue (at position 1) and the remaining residues were randomized. For library construction, degenerate oligonucleotides of sequence 5′-[…](AGC/ACC/TGC)(NNK)2 or 3 TGCATCAGCGGCGACAG-3′ were annealed to the primer 5′-[…]-3′ and extended using the Expand PCR kit (Roche Molecular Biochemicals). The double-stranded DNA insert was digested and inserted into the BclI/DrdI sites of DnaBO-e-BFP (ACUC). The plasmid libraries were electroporated into ElectroMAX DH 10B competent E. coli (Invitrogen) for amplification on LB+amp agar medium. […] Expression of the intein is detected by detecting BFP expression. Expression of the intein (and the cyclic peptide produced by the intein) is suppressible by addition of exogenous doxycycline. The amino acid sequence of the junctions of the intein scaffold used in making the 3-mer library is Val-His-Asn-X3 or 4-Cys-Ile-Ser, where X3 or 4 are three or four contiguous amino acids.
Infectious retroviral particles were produced by transfection of 15 µg of each library (as described in Swift et al, (1999). Current Protocols in Immunology Vol. 10.17C, pp. 1-17, Freeman, N.Y.) into approximately 5×10^6 Phoenix-A packaging cells. Each resulting library of retroviral particles was then used to infect 5×10^6 BJAB-S3A11 reporter cells and a FACS based selection was carried out to isolate cells with reduced HCV-IRES reporter output.
In detail, referring to FIG. 2, the cells used in the assay contained an IRES-dependent reporter system. […]. Also present in the cells is a control reporter system for assaying the activity of 5′ cap-dependent translation (the mechanism by which most cellular proteins are normally translated). The control reporter system contains a CMV promoter that drives the transcription of an RNA containing 5′ cap-dependent UTR, operably linked to an RNA encoding RFP (red fluorescent protein). Translation of RFP is dependent on the activity of the 5′ cap-dependent UTR.
Cells containing both the cyclic compound library and the reporter systems described above were first screened for survival upon exposure to diptheria toxin, and then screened by FACS to identify cells that had reduced GFP expression, as compared to RFP expression. Cells were expanded and replica-plated and grown in the presence or absence of dox (100 ng/ml) for four days. Plates were stimulated with IL-4 and GFP expression (relative to RFP) was monitored by flow cytometry. The IRES-inhibitory activity of a peptide is evaluated by calculating the ratio of the geometric mean of GFP expression of peptide positive cells (“peptide pos+” cells i.e., cells not contacted with dox) to the geometric mean of GFP expression of peptide negative cells (“peptide pos−” cells i.e., cells contacted with dox).
Cyclic peptides assigned higher scores have a greater IRES-inhibitory activity.
The number shown in parentheses after each of the amino acid sequences is the IRES-inhibitory activity ratio, as discussed above.

| Compound | IRES-inhibitory activity ratio (geometric mean GFP expression, peptide positive cells / peptide negative cells) |
| --- | --- |
| C[C@@H]1NC(=O)[C@H]([C@@H](C)O)NC(=O)[C@H](Cc2c[nH]c3ccccc23)NC1=O [cyclo-TAW, cyclo[TAW]] (cyclo(Ala-Trp-Thr)) | 5.09 |
| NC(=O)CC[C@@H]1NC(=O)[C@H](CO)NC(=O)[C@H](Cc2c[nH]c3ccccc23)NC1=O [cyclo-SQW, cyclo[SQW]] (cyclo(Gln-Trp-Ser)) | 2.20 |
| O=C1N[C@@H](CS)C(=O)N[C@@H](Cc2c[nH]c3ccccc23)C(=O)N[C@H]1CO [cyclo-SCW, cyclo[SCW]] (cyclo(Cys-Trp-Ser)) | 2.01 |
| O=C(O)CC[C@@H]1NC(=O)[C@H](CO)NC(=O)[C@H](Cc2c[nH]c3ccccc23)NC1=O [cyclo-SEW, cyclo[SEW]] (cyclo(Glu-Trp-Ser)) | 2.00 |
| C[C@@H](O)[C@@H]1NC(=O)[C@H](CO)NC(=O)[C@H](Cc2c[nH]c3ccccc23)NC1=O [cyclo-STW, cyclo[STW]] (cyclo(Ser-Thr-Trp)) | 2.12 |
| NC(=O)C[C@@H]1NC(=O)[C@H](CO)NC(=O)[C@H](Cc2c[nH]c3ccccc23)NC1=O [cyclo-SNW, cyclo[SNW]] (cyclo(Asn-Trp-Ser)) | 2.10 |
| O=C1N[C@@H](Cc2cnc[nH]2)C(=O)N[C@@H](Cc2c[nH]c3ccccc23)C(=O)N[C@H]1CO [cyclo-SHW, cyclo[SHW]] (cyclo(His-Trp-Ser)) | 2.26 |
| N=C(N)NCCC[C@@H]1NC(=O)[C@H](CO)NC(=O)[C@H](Cc2c[nH]c3ccccc23)NC1=O [cyclo-SRW, cyclo[SRW]] (cyclo(Arg-Trp-Ser)) | 2.14 |
| CCC(C)[C@@H]1NC(=O)[C@H](C)NC(=O)[C@H](CO)NC1=O (stereo partly drawn) [cyclo-SAI, cyclo[SAI]] | 1.30 |
| O=C1N[C@@H](CO)C(=O)N2CCC[C@H]2C(=O)N[C@H]1Cc1c[nH]c2ccccc12 [cyclo-SPW, cyclo[SPW]] (cyclo(Pro-Trp-Ser)) | 2.28 |

Same assay, conditions: 3-mers from mutant intein scaffold, junction Val-His-Tyr-X1X2X3-Cys-Ile-Ser; ratio at least 1.20 = significant activity

| Compound | IRES-inhibitory activity ratio (geometric mean GFP expression, peptide positive cells / peptide negative cells) |
| --- | --- |
| C[C@@H]1NC(=O)[C@H](CO)NC(=O)[C@H]([C@@H](C)O)NC1=O [cyclo-SAT, cyclo[SAT]] (cyclo(Ala-Thr-Ser)) | 1.21 |

Same assay, conditions: 4-mers from mutant intein scaffold, junction Val-His-Asn-X1X2X3X4-Cys-Ser; ratio at least 1.20 = significant activity

| Compound | IRES-inhibitory activity ratio (geometric mean GFP expression, peptide positive cells / peptide negative cells) |
| --- | --- |
| N=C(N)NCCC[C@@H]1NC(=O)[C@H](Cc2ccccc2)NC(=O)[C@H](Cc2c[nH]c3ccccc23)NC(=O)[C@H](CO)NC1=O [cyclo-SWFR, cyclo[SWFR]] (cyclo(FRSW)) | 1.44 |
| N=C(N)NCCC[C@@H]1NC(=O)[C@H](Cc2ccc(O)cc2)NC(=O)[C@H](Cc2c[nH]c3ccccc23)NC(=O)[C@H](CO)NC1=O [cyclo-SWYR, cyclo[SWYR]] (cyclo(RSWY)) | 1.49 |
| C[C@@H](O)[C@@H]1NC(=O)[C@H](CCCNC(=N)N)NC(=O)[C@H](Cc2ccccc2)NC(=O)[C@H](Cc2c[nH]c3ccccc23)NC1=O [cyclo-TWFR, cyclo[TWFR]] (cyclo(FRTW)) | 1.56 |
| N=C(N)NCCC[C@@H]1NC(=O)[C@H](Cc2c[nH]c3ccccc23)NC(=O)[C@H](Cc2c[nH]c3ccccc23)NC(=O)[C@H](CO)NC1=O [cyclo-SWWR, cyclo[SWWR]] (cyclo(RSWW)) | 2.03 |

Same assay, conditions: BJAB-S3A11 reporter cells, +/- dox 100 ng/ml four days; library intein junction Val-His-Asn-X1X2X3-Cys-Ile-Ser; ratio at least 1.20 = significant activity

| Compound | IRES-inhibitory activity ratio (geometric mean GFP expression, peptide positive cells / peptide negative cells) |
| --- | --- |
| CSCC[C@@H]1NC(=O)[C@H](CO)NC(=O)[C@H](C(C)C)NC1=O [cyclo-SMV, cyclo[SMV]] (cyclo(Met-Val-Ser)) | 1.36 |
| CSCC[C@@H]1NC(=O)[C@H]([C@@H](C)O)NC(=O)[C@H](Cc2ccccc2)NC1=O [cyclo-TMF, cyclo[TMF]] (cyclo(Phe-Thr-Met)) | 1.37 |
| CC(C)[C@@H]1NC(=O)[C@H](CO)NC(=O)[C@H](Cc2c[nH]c3ccccc23)NC1=O [cyclo-SVW, cyclo[SVW]] (cyclo(Ser-Val-Trp)) | 1.3 |
| O=C1N[C@@H](Cc2c[nH]c3ccccc23)C(=O)N[C@@H](Cc2c[nH]c3ccccc23)C(=O)N[C@H]1CO [cyclo-SWW, cyclo[SWW]] (cyclo(Ser-Trp-Trp)) | 2.37 |
| CSCC[C@@H]1NC(=O)[C@H]([C@@H](C)O)NC(=O)[C@H](Cc2c[nH]c3ccccc23)NC1=O [cyclo-TMW, cyclo[TMW]] (cyclo(Met-Trp-Thr)) | 2.1 |
| CC(C)[C@@H]1NC(=O)[C@H](Cc2ccccc2)NC(=O)[C@H](CO)NC1=O [cyclo-SFV, cyclo[SFV]] | 1.33 |
| CC(C)[C@@H]1NC(=O)[C@H](CCCCN)NC(=O)[C@H](CO)NC1=O [cyclo-SKV, cyclo[SKV]] (cyclo(Lys-Val-Ser)) | 1.38 |
| CC(C)[C@@H]1NC(=O)[C@H](CO)NC(=O)[C@H](C(C)C)NC1=O [cyclo-SVV, cyclo[SVV]] (cyclo(Ser-Val-Val)) | 1.64 |
| O=C1N[C@@H](Cc2ccc(O)cc2)C(=O)N[C@@H](Cc2c[nH]c3ccccc23)C(=O)N[C@H]1CS [cyclo-CYW, cyclo[CYW]] (cyclo(Cys-Tyr-Trp)) | 1.3 |
| CSCC[C@@H]1NC(=O)[C@H]([C@@H](C)O)NC(=O)[C@H](C(C)C)NC1=O [cyclo-TMV, cyclo[TMV]] (cyclo(Met-Val-Thr)) | 1.56 |
| CC(C)C[C@@H]1NC(=O)[C@H]([C@@H](C)O)NC(=O)[C@H](Cc2c[nH]c3ccccc23)NC1=O [cyclo-TLW, cyclo[TLW]] (cyclo(Leu-Trp-Thr)) | 1.2 |
| CSCC[C@@H]1NC(=O)[C@H](Cc2c[nH]c3ccccc23)NC(=O)[C@H](CO)NC1=O [cyclo-SWM, cyclo[SWM]] (cyclo(Met-Ser-Trp)) | 1.22 |
| O=C1N[C@@H](Cc2ccccc2)C(=O)N[C@@H](Cc2c[nH]c3ccccc23)C(=O)N[C@H]1CO [cyclo-SFW, cyclo[SFW]] (cyclo(Phe-Trp-Ser)) | 1.55 |
| C[C@@H]1NC(=O)[C@H](CS)NC(=O)[C@H](Cc2c[nH]c3ccccc23)NC1=O [cyclo-CAW, cyclo[CAW]] (cyclo(Ala-Trp-Cys)) | 1.37 |
| C[C@@H](O)[C@@H]1NC(=O)[C@H](Cc2c[nH]c3ccccc23)NC(=O)[C@H](CO)NC1=O [cyclo-TSW, cyclo[TSW]] (cyclo(Ser-Trp-Thr)) | 1.25 |
